Results: patent US12578343B2, “Selective ACKR3 modulators and uses thereof” (Luxembourg Institute of Health (LIH), priority 2019, dated 2026)

Assays:
ACKR3 = ACKR3 (Homo sapiens, UniProt P25106); experiment: Binding competition with Alexa Fluor 647-labelled CXCL12 on U87-ACKR3 cells, flow cytometry; set-up: expressed in transfected cells; for the receptor comparison in the uptake assay, transient pcDNA3.1); conditions: 5 nM CXCL12-AF647, U87-ACKR3 cells
Procedure: 1.3. Binding Competition Assays
U87-ACKR3 cells were distributed into 96-well plates (1.5×10^5 cells per well) and incubated with a mixture of 5 nM CXCL12-AF647 and unlabelled chemokines or opioid peptides at indicated concentrations for 90 minutes on ice, then washed twice with FACS buffer (PBS, 1% BSA, 0.1% NaN3) at 4° C. Dead cells were excluded using Zombie Green viability dye (BioLegend). ACKR3-negative U87 cells were used to evaluate non-specific binding of CXCL12-AF647. […] The signal obtained for CXCL12-AF647 in the absence of unlabelled chemokines was used to define 100% binding. Ligand binding was quantified by mean fluorescence intensity on a BD FACS Fortessa cytometer (BD Biosciences).

smNPCs = experiment: Uptake of labelled dynorphin A (1-13) by smNPCs, imaging flow cytometry; format: cell-based, human; conditions: 3 μM, 15 minutes pre-treatment
Procedure: U87 cells derived from human brain glioblastoma were obtained through the NIH AIDS Reagent Program from Dr. Deng and Dr. Littman. U87 stably expressing ACKR3 and CXCR4 were generated as previously described in Szpakowska, M. et al. Different contributions of chemokine N-terminal features attest to a different ligand binding mode and a bias towards activation of ACKR3/CXCR7 compared with CXCR4 and CXCR3. Br J Pharmacol 175, 1419-1438 (2018). U87 cells were grown in Dulbecco's modified Eagle medium (DMEM) supplemented with 15% foetal bovine serum and penicillin/streptomycin (100 Units/ml and 100 μg/ml). U87-ACKR3 and U87-CXCR4 were maintained under puromycin (1 μg/ml) selective pressure. smNPCs (small molecule neural precursor cells) derived from a healthy donor (C1-1) whose informed consent was obtained, were grown on Geltrex™-coated surface in N2B27 medium supplemented with 0.5 μM Purmorphamine, 3 μM CHIR 99021 and 150 μM ascorbic acid. N2B27 medium consisted of DMEM/F12 and NeuroBasal medium 50:50 with 0.5% N2 supplement, 1% B27 supplement lacking vitamin A, 1% GlutaMAX and 1% penicilin/streptomycin. Medium was renewed every other day.
Cells were distributed into 96-well plates (2×10^5 cells/well in Opti-MEM for U87 and U87-ACKR3 and 3×10^5 cells/well in N2B27 medium for smNPCs). […] For comparison of labelled opioid peptide-uptake by ACKR3 or classical opioid receptors, 1.2×10^6 U87 cells were seeded in 10-cm dishes and transfected 48 hours later with 4 μg pcDNA3.1 plasmid encoding ACKR3 or KOR, MOR or NOP. 48 hours post transfection, cells were harvested and treated as described above. Dead cells were excluded using Zombie NIR or Zombie Green viability dye (BioLegend) for FAM-labelled peptides and Cy5-labelled peptides, respectively. Images of 1×10^4 in-focus, living single cells were acquired with an ImageStream MKII imaging flow cytometer (Amnis) using 40× magnification (60× magnification for smNPCs). Samples were analysed using Ideas6.2 software. The number of spots per cell was determined using a mask-based software wizard.

Chain of ACKR3 (P25106 whole entry): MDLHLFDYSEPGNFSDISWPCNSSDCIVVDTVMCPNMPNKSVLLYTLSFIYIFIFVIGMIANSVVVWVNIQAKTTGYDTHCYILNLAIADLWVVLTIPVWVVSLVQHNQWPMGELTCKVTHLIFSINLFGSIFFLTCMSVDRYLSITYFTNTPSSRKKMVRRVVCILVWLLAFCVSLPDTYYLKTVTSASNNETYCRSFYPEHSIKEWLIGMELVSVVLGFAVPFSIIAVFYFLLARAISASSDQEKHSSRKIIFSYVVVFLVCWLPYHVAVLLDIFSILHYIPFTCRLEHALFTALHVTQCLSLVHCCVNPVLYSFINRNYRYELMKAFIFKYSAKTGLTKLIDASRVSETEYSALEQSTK

Question: How did the “competition with CXCL12-AF647 for ACKR3 binding” value (ACKR3) turn out when `CSCC[C@H](NC(=O)[C@H](Cc1ccccc1)NC(=O)CNC(=O)CNC(=O)[C@@H](N)Cc1ccccc1)C(=O)N[C@@H](CCCNC(=N)N)C(=O)N[C@@H](CCCNC(=N)N)C(=O)N[C@@H](CCCCN)C(N)=O` [LIH383] was run?
Answer: low nanomolar concentrations

Question: What about the “effect of pretreatment on uptake of labelled dynorphin A (1-13) by smNPCs” value (smNPCs) of the same compound?
Answer: significantly reduced
